This is an account of results in patent US9023836B2, “Use of substituted heterocyclic compounds to control sea lice on fish” (Novartis Tiergesundheit AG, priority 2010, dated 2015).

Test [1] relates to Lepeophtheirus salmonis copepodids. Briefly: Activity in vitro against Lepeophtheirus salmonis at copepodid stage. The note with it: 1 hour contact in sea water, then 48 h in untreated sea water, no movement over 80 seconds, read-out: efficacy (EC80). As to the method:
Activity in Vitro Against Lepeophtheirus Salmonis at Copepodid Stage Sea lice copepodids were used to seed a 96-well plate containing the test substances to be evaluated for antiparasitic activity. Each compound was tested by serial dilution in order to determine its minimal effective dose (MED). Copepodids were left in contact with the test compound diluted in sea water for 1 hour. They were then incubated in untreated sea water for 48 h. Efficacy against sea lice was then confirmed if no copepodid moved over a period of 80 seconds.

In test [2] the test system is Lepeophtheirus salmonis adult lice. Briefly: In vitro activity against Lepeophtheirus salmonis at adult stage. The note with it: at 1 ppm; 60 minutes exposure, survival at 24 hours post exposure, 12° C. As to the method:
In Vitro Activity of Compound 8 Against Lepeophtheirus Salmonis at Adult Stage
Ten mixed sex adult lice (non gravid, Lepeophtheirus salmonis) were removed from fish and exposed to a test compound at several dilution in filtered sea water and placed in an incubator at 12° C. in dark conditions. After 60 minutes exposure, lice were rinsed in clean sea water and transferred to petri dishes containing 100 mL of sea water. They were then returned to the incubator. Lice were examined for survival at 24 hours post exposure (moribund lice considered as dead)

Test [3] relates to Lepeophtheirus salmonis on Atlantic salmon. Briefly: In vivo activity against Lepeophtheirus salmonis on Atlantic salmon using injectable application. As to the method:
In Vivo Activity of Compound 8 Against Lepeophtheirus Salmonis on Atlantic Salmon using Injectable Application
Twenty Atlantic salmon (mean weights at about 100 g) were anaesthetized with 2-phenoxy ethanol, individually weighed and injected with 0.2 ml of compound 8 formulated in PEG300 at 2.5%, corresponding to a 50 mg/kg dose. Each treatment was administered by single IP injection and fish were then transferred to a flow through tank, the temperature of which was maintained between 6 and 14° C. Louse infection was by exposure of experimental fish to louse copepodids freshly hatched from Lepeophtheirus salmonis egg strings. The number of copepodids used was selected to provide a settlement rate of at least 10 lice per fish. Sea louse numbers were assessed when they had developed to chalimus stage III/IV or later on if needed.
Ten fish per group were anaesthetized with 2 phenoxy-ethanol and examined for louse settlement under a dissecting microscope. Differences in sea louse counts between each test group and the relevant control group (non treated) infested at the same time as the test group were assessed using Mann-Whitney Tests. Efficacy was calculated using the formula: % Efficacy=100−(100×mean of treatment group/mean of control).

Test [4] shares this test system. The experiment in a line: In vivo activity against Lepeophtheirus salmonis on Atlantic salmon using bath treatment application. The following applies: bath 2 ppm in salt water, 60 minutes. As to the method: In Vivo Activity of Compound 8 Against Lepeophtheirus Salmonis on Atlantic Salmon using Bath Treatment Application Bath containing compound 8 at 2 ppm in salt water was prepared by dilution of a solution of compound 8 in DMSO. Fish (Atlantic salmons) had been previously infected with 2 cohorts of lice to ensure the presence of chalimus and motile lice at the time of treatment. This test was performed on thirty fish per group and was compared to 30 control fish that were bathed in sea water containing DMSO only (at an inclusion rate equal to that used in the test group using the most DMSO as solvent), for 60 minutes. The fish were then transferred to holding tanks and sampled for lice numbers at 3 and 10 days post treatment. Ten fish per group were anaesthetized with 2 phenoxy-ethanol and examined for louse settlement under a dissecting microscope. Differences in sea louse counts between each test group and the relevant control group (non treated) infested at the same time as the test group were assessed using Mann-Whitney Tests. Efficacy was calculated using the formula: % Efficacy=100−(100×mean of treatment group/mean of control).

Test [5] shares this test system. The experiment in a line: In vivo activity against Lepeophtheirus salmonis on Atlantic salmon using in-feed application. The following applies: medicated pellets 9.8 mg/kg/day, 7 consecutive days. As to the method: In Vivo Activity of Compound 8 Against Lepeophtheirus Salmonis on Atlantic Salmon using In-Feed Application
Compound 8 was administered orally via medicated fish pellets at an average dose of 9.8 mg/kg/day during 7 consecutive days to 50 Atlantic salmon infected with lice (Lepeophtheirus salmonis). The medicated pellets were prepared by dry top coating of the compound 8, formulated as feed additive as described above, and over-oiling to seal (1% fish oil). Fish had been previously infected by exposure to louse. The number of copepodids used was selected to provide an settlement rate of at least 10 lice per fish. Treatment was done when lice had developed to pre-adult II and adult stages. Sea louse numbers were assessed 34 days post treatment. A second challenge using louse copepodids took place at 41 days post treatment. Sea louse numbers were assessed when they had developed to adults.
All fish were anaesthetized with 2 phenoxy-ethanol and examined for louse settlement under a dissecting microscope. Differences in sea louse counts between each test group and the relevant control group (non treated) infested at the same time as the test group were assessed using Mann-Whitney Tests. Efficacy was calculated using the formula: % Efficacy=100−(100×mean of treatment group/mean of control).

Setting [6] is: 50 mg/kg IP, 14 days post treatment, Chalimus III.
Setting [7] is: 50 mg/kg IP, 41 days post treatment, Chalimus III.
The mark [8] stands for this setting: 50 mg/kg IP, 83 days post treatment, Chal III/IV.
[9] abbreviates: 50 mg/kg IP, 127 days post treatment, Chal III/IV.
[10] abbreviates: 50 mg/kg IP, 169 days post treatment, Chal III/IV.
The mark [11] stands for this setting: 50 mg/kg IP, 217 days post treatment, Adults.
[12] abbreviates: 50 mg/kg IP, 217 days post treatment, Chal III/IV.
Where [13] appears, read: 50 mg/kg IP, 217 days post treatment, PAI & PAII.
[14] abbreviates: 50 mg/kg IP, 252 days post treatment, Chal IV/PAI.

Molecules are shown by their SMILES. In brackets after ≈: the same amount, converted by molar mass.

As for `Cc1cc(C2=NOC(c3cc(Cl)cc(Cl)c3)(C(F)(F)F)C2)ccc1-n1cncn1` (centres unmarked) [Example 1], in test [1], the EC80 is 0.05 µg/mL (≈ 0.113 µM).

Regarding `Cc1cc(C2=NOC(c3cc(Cl)cc(Cl)c3)(C(F)(F)F)C2)ccc1C(=O)NCc1ccccn1` (centres unmarked) [Example 2], in test [1], the EC80 was found to be 0.05 µg/mL (≈ 0.0984 µM).

For the compound `Cc1cc(C2=NOC(c3cc(Cl)cc(Cl)c3)(C(F)(F)F)C2)ccc1C(=O)NCC(F)(F)F` (centres unmarked) [Example 3], the EC80 in test [1] was 0.05 µg/mL (≈ 0.1 µM).

As to `N#Cc1cc(C2=NOC(c3cc(Cl)cc(Cl)c3)(C(F)(F)F)C2)ccc1-n1cncn1` (centres unmarked) [Example 6], the EC80 in test [1] came out at 0.05 µg/mL (≈ 0.111 µM).

In the case of `O=C(NCc1ccccn1)c1ccc(C2=NOC(c3cc(Cl)cc(Cl)c3)(C(F)(F)F)C2)c2ccccc12` (centres unmarked) [Example 7], the EC80 in test [1] worked out at 0.05 µg/mL (≈ 0.0919 µM).

For `O=C(NCC(F)(F)F)c1ccc(C2=NOC(c3cc(Cl)cc(Cl)c3)(C(F)(F)F)C2)c2ccccc12` (centres unmarked) [Example 8], the EC80 in test [1] turned out to be 0.05 µg/mL (≈ 0.0934 µM). Besides, the Efficacy result is on record as “more than 90%” in test [2]; 99.5% in test [3] (setting [6]); 100% in test [3] (setting [7]); 100% in test [3] (setting [8]); 100% in test [3] (setting [9]); 100% in test [3] (setting [10]). Also, the Efficacy in test [3] (setting [11]) is given as 97.3%; in test [3] (setting [12]), 74.3%; in test [3] (setting [13]) it was 94.6%; in test [3] (50 mg/kg IP, 252 days post treatment, Adults), 84.9%; in test [3] (setting [14]), 29.8%; in test [3] (single IP injection 50 mg/kg in PEG300, for up to 7 months post treatment), “more than 90%”. Besides, the “Mean lice count of treated fish ± s.d.” value in test [3] (setting [6]) stood at 0.1 ± 0.3; in test [3] (setting [7]) it was 0.0 ± 0.0; in test [3] (setting [8]), 0.0 ± 0.0; in test [3] (setting [9]) it was 0.0 ± 0.0; in test [3] (setting [10]), 0.0 ± 0.0; in test [3] (setting [11]), 0.5 ± 1.0. The “Mean lice count of treated fish ± s.d.” value is recorded as 22.9 ± 27.7 in test [3] (setting [12]), 4.5 ± 5.8 in test [3] (setting [13]) and 21.4 ± 15.5 in test [3] (setting [14]). Moreover, the “effective against adult sea lice” value in test [4] (3 days post treatment) is 100%. The “effective against developing chalimus stage” value in test [4] (by 10 days post treatment) is listed as 96%. In addition, in test [5] (lice assessed 34 days post treatment), the “efficacy as a curative treatment (first challenge)” value turned out to be 100%. The “efficacy on the challenge performed 41 days post treatment” value in test [5] (second challenge with copepodids, assessed at adult stage) was 100%.

Turning to `COC(=O)CNC(=O)c1ccc(C2=NOC(c3cc(Cl)cc(Cl)c3)(C(F)(F)F)C2)c2ccccc12` (centres unmarked) [Example 10], the EC80 in test [1] is 0.05 µg/mL (≈ 0.0952 µM).

Consider `O=C(CNC(=O)c1ccc(C2=NOC(c3cc(Cl)cc(Cl)c3)(C(F)(F)F)C2)c2ccccc12)NCC(F)(F)F` (centres unmarked) [Example 11], for which the EC80 in test [1] was 0.05 µg/mL (≈ 0.0844 µM).

For the compound `CN(C)/C=N/C(=O)c1ccc(C2=NOC(c3cc(Cl)cc(Cl)c3)(C(F)(F)F)C2)c2ccccc12` (centres unmarked) [Example 12], the EC80 in test [1] was determined as 0.05 µg/mL (≈ 0.0984 µM).

`CON/C=N\C(=O)c1ccc(C2=NOC(c3cc(Cl)cc(Cl)c3)(C(F)(F)F)C2)c2ccccc12` (centres unmarked) [Example 13]: the EC80 in test [1] stood at 0.05 µg/mL (≈ 0.098 µM).

In the case of `Cc1cc(C2=NOC(c3cc(Cl)cc(Cl)c3)(C(F)(F)F)C2)ccc1C(=O)NCC(=O)NCC(F)(F)F` (centres unmarked) [Example 14], in test [1], the EC80 turned out to be 0.05 µg/mL (≈ 0.0899 µM).

Take `CON/C=N/C(=O)c1ccc(C2=NOC(c3cc(Cl)cc(Cl)c3)(C(F)(F)F)C2)cc1C` (centres unmarked) [Example 16]: the EC80 in test [1] was 0.05 µg/mL (≈ 0.105 µM).

Turning to `CCC(=O)NCc1ccc(C2=NOC(c3cc(Cl)cc(Cl)c3)(C(F)(F)F)C2)cc1C` (centres unmarked) [Example 17], the EC80 in test [1] came out at 0.05 µg/mL (≈ 0.109 µM).

Regarding `COCCC(=O)NCc1ccc(C2=NOC(c3cc(Cl)cc(Cl)c3)(C(F)(F)F)C2)cc1C` (centres unmarked) [Example 18], in test [1], the EC80 was 0.05 µg/mL (≈ 0.102 µM).

As for `Cc1cc(C2=NOC(c3cc(Cl)cc(Cl)c3)(C(F)(F)F)C2)ccc1CNC(=O)C1CC1` (centres unmarked) [Example 24], the EC80 in test [1] is 0.05 µg/mL (≈ 0.106 µM).

`CCCC(=O)NCc1ccc(C2=NOC(c3cc(Cl)cc(Cl)c3)(C(F)(F)F)C2)cc1C` (centres unmarked) [Example 25]: the EC80 in test [1] worked out at 0.05 µg/mL (≈ 0.106 µM).

Regarding `Cc1cc(C2=NOC(c3cc(Cl)cc(Cl)c3)(C(F)(F)F)C2)ccc1CNC(=O)CC1(C)OCCO1` (centres unmarked) [Example 26], the EC80 in test [1] was determined as 0.05 µg/mL (≈ 0.0941 µM).

As for `CSCC(=O)NCc1ccc(C2=NOC(c3cc(Cl)cc(Cl)c3)(C(F)(F)F)C2)cc1C` (centres unmarked) [Example 28], the EC80 in test [1] is 0.05 µg/mL (≈ 0.102 µM).

`CC(=O)NCc1ccc(C2=NOC(c3cc(Cl)cc(Cl)c3)(C(F)(F)F)C2)cc1C` (centres unmarked) [Example 29]: in test [1], the EC80 was determined as 0.05 µg/mL (≈ 0.112 µM).

`Cc1cc(C2=NOC(c3cc(Cl)cc(Cl)c3)(C(F)(F)F)C2)ccc1CNC(=O)C1CCC1` (centres unmarked) [Example 30]: in test [1], the EC80 came out at 0.05 µg/mL (≈ 0.103 µM).

Consider `Cc1cc(C2=NOC(c3cc(Cl)cc(Cl)c3)(C(F)(F)F)C2)ccc1CNC(=O)CC(C)C` (centres unmarked) [Example 31], for which, in test [1], the EC80 is 0.05 µg/mL (≈ 0.103 µM).

Consider `Cc1cc(C2=NOC(c3cc(Cl)cc(Cl)c3)(C(F)(F)F)C2)ccc1CNC(=O)CCC#N` (centres unmarked) [Example 33], for which the EC80 in test [1] was determined as 0.05 µg/mL (≈ 0.103 µM).
